The structures appear in SMILES notation. Read-outs that look alike come from different tables or passages of the source.

Series [1] deals with Herpes simplex 1 Virus (HSV-1). As to the kind of experiment: Activity against systemic HSV-1 infection in the NMRI mouse, oral treatment. It counts as in vivo, NMRI-Mäuse. The following applies: i.p. infection, observation two weeks. From the text:
Wirkung gegen systemische Herpes simplex 1 Virus (HSV-1) Infektion: NMRI-Mäuse, spezifisch pathogenfrei, im Gewicht von 15-18 g wurden intraperitoneal mit HSV-1 infiziert und anschließend mit den erfindungsgemäßen Verbindungen oral therapiert. Die Behandlung erfolgte erstmals 3 Stunden nach der Infektion und wurde zweimal täglich über 4 Tage fortgesetzt. Der Behandlungserfolg wurde anhand des Krankheitsverlaufes und der Überlebensrate gegenüber der unbehandelten Infektionskontrolle bestimmt. Letztere erhielt anstelle der erfindungsgemäßen Verbindungen physiologische Kochsalzlösung appliziert. Die Beobachtungszeit betrug zwei Wochen. Tabelle 1 zeigt die Ergebnisse dieser Untersuchung. Tabelle 1

Series [2] is described as follows: Oral bioavailability in the mouse. The format is in vivo, Maus. The following applies: for AUC(0-inf): analyte Formel 1', read-out: AUD (0-->oo) (converted). From the text:
Folgende Bioverfügbarkeiten der Verbindungen der Formel 1' wurden bei Mäusen nach oraler Gabe der erfindungsgemäßen Verbindungen ermittelt: […]

For the compound `CC(=O)OCC(COC(C)=O)OCn1cnc2nc(N)ncc21` [Beispiel 1, 2-Amino-7-[(1,3-bis-acetoxy-2-propoxy)methyl]purin], the “mittlere Überlebenszeit (Tage)” value in series [1] (9 x 10 µmol/kg), in series [1] (9 x 30 µmol/kg) and in series [1] (9 x 100 µmol/kg) was > 14 Tage in each case. In addition, the “Überlebende/ Gruppengröße” value in series [1] (9 x 10 µmol/kg), in series [1] (9 x 30 µmol/kg) and in series [1] (9 x 100 µmol/kg) was 5/5 each time.
On to `CCC(=O)OCC(COC(=O)CC)OCn1cnc2nc(N)ncc21` [Beispiel 3, 2-Amino-7-[(1,3-bis-propionyloxy-2-propoxy)methyl]purin], for which the “Überlebende/ Gruppengröße” value in series [1] (9 x 30 µmol/kg) and in series [1] (9 x 100 µmol/kg) was 5/5 each time.
As for `Nc1ncc2c(ncn2COC(CO)CO)n1` [Formel 1', 2-Amino-7-[(1,3-dihydroxy-2-propoxy)methyl]purin, reference compound], the “mittlere Überlebenszeit (Tage)” value in series [1] (9 x 10 µmol/kg) turned out to be 10.5 ± 0.7 Tage; in series [1] (9 x 30 µmol/kg), 9.5 ± 1.3 Tage. Further, the “Überlebende/ Gruppengröße” value is recorded as 3/5 in series [1] (9 x 10 µmol/kg), 1/5 in series [1] (9 x 30 µmol/kg) and 5/5 in series [1] (9 x 100 µmol/kg). The Bioverfügbarkeit in series [2] (i.v., 25 mg/kg, availability of Formel 1') came to 100%. The AUC(0-inf) was 223 ng·h/mL in series [2] (in vivo, iv, 25 mg/kg) and 154 ng·h/mL in series [2] (in vivo, po, 100 mg/kg). Further, the bioavailability in series [2] (in vivo, po, 100 mg/kg, availability of Formel 1', read-out: Bioverfügbarkeit) was found to be 17.2%.
As for `CCCC(=O)OCC(COC(=O)CCC)OCn1cnc2nc(N)ncc21` [Beispiel 2, 2-Amino-7-[(1,3-bis-butyryloxy-2-propoxy)methyl]purin], the “Überlebende/ Gruppengröße” value in series [1] (9 x 30 µmol/kg) and in series [1] (9 x 100 µmol/kg) was 5/5 in each case.

The record behind these values is patent EP0563814A2, “Carbonic acid esters of 2-amino-7-(1,3-dihydroxy-2-propoxymethyl)purines, their preparation and their use as antiviral agents” (HOECHST AKTIENGESELLSCHAFT, priority 1992, dated 1993).
